# According to publication PMC8693618 (Bioorganic & medicinal chemistry, 2021):
# Where two headings read alike, the source gives them in different places.
# Experiments:
# [1] = PAMPA passive permeability; type: in vitro ADME
# human PANK3 = human PANK3 (Homo sapiens, UniProt Q9H999); details: tested up to 10 μM
# Plasma Protein [2] = details: human; previously determined ref 8; cited from earlier work
# [3] = passive permeability; previously determined ref 8; cited from earlier work
# Caco2 = details: previously determined ref 8; cited from earlier work
# Plasma Protein [4] = details: mouse; previously determined ref 8; cited from earlier work
# Plasma Protein [5] = details: rat; previously determined ref 8; cited from earlier work
# [6] = mouse, rat, and human plasma; previously determined ref 8; cited from earlier work
# Sequence of human PANK3 (Q9H999 whole entry): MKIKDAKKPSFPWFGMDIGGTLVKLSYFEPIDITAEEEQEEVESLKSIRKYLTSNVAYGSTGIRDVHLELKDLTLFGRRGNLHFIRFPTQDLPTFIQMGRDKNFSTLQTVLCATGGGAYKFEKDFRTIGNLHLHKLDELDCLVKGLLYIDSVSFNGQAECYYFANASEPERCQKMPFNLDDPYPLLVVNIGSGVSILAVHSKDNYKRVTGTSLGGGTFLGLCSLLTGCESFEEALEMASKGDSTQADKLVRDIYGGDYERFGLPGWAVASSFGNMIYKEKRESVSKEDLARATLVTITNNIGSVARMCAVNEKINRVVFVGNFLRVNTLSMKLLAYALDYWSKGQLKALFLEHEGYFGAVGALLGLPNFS
smiles,measurement,setting,value
"CC(C)(C)c1ccc(NC(=O)N2CCN(c3ccc(C#N)cn3)CC2)cc1 [Compound 1, N-(4-(tert-butyl)phenyl)-4-(5-cyanopyridin-2-yl) piperazine-1-carboxamide]",PAMPA,[1],1232 1 × 10^−6 cm/s
"CCc1ccc(NC(=O)N2CCN(c3ccc(C#N)cn3)CC2)cc1 [Compound 3, 4-(5-cyanopyridin-2-yl)-N-(4-ethylphenyl)piperazine-1-carboxamide]",PANK3 inhibitory activity in words,human PANK3,did not show activity
"CCCCc1ccc(NC(=O)N2CCN(c3ccc(C#N)cn3)CC2)cc1 [Compound 8, N-(4-butylphenyl)-4-(5-cyanopyridin-2-yl)piperazine-1-carboxamide]",PANK3 inhibitory activity in words,human PANK3,did not show activity
"N#Cc1ccc(N2CCN(C(=O)Nc3ccc(Br)cc3)CC2)nc1 [Compound 14, N-(4-bromophenyl)-4-(5-cyanopyridin-2-yl)piperazine-1-carboxamide]",PANK3 inhibitory activity in words,human PANK3,inactive
"N#Cc1ccc(N2CCN(C(=O)Nc3ccc(C(F)(F)F)cc3)CC2)nc1 [Compound 18, 4-(5-cyanopyridin-2-yl)-N-(4-(trifluoromethyl)phenyl)piperazine-1-carboxamide]",PANK3 inhibitory activity in words,human PANK3,inactive
"CC(C)c1ccc(C(=O)N2CCN(c3ccc(C#N)cn3)CC2)cc1 [Compound 28, 6-(4-(4-isopropylbenzoyl)piperazin-1-yl) nicotinonitrile]",PANK3 inhibitory activity in words,human PANK3,complete loss of activity
"CC(C)c1ccc(C(=O)CN2CCN(c3ccc(C#N)cn3)CC2)cc1 [Compound 32, 6-(4-(2-(4-isopropylphenyl)-2-oxoethyl)piperazin-1-yl)nicotinonitrile]",PANK3 inhibitory activity in words,human PANK3,loss of activity
"CC(C)c1ccc(NC(=O)N2CCN(c3ccc(C#N)nn3)CC2)cc1 [Compound 56, 4-(6-cyanopyridazin-3-yl)-N-(4-isopropylphenyl) piperazine-1-carboxamide]",PAMPA,[1],316 1 × 10^−6 cm/s
"CC(C)c1ccc(CC(=O)N2CCN(c3ccc(C#N)nn3)CC2)cc1 [Compound 57, 6-(4-(2-(4-isopropylphenyl)acetyl)piperazin-1-yl) pyridazine-3-carbonitrile]",Plasma Protein Binding,Plasma Protein [2],93%
same,PAMPA,[3],413 1 × 10^−6 cm/s
same,Caco2 Permeability A/B,Caco2,30.2 ×10⁻⁶ cm/s
same,Plasma Protein Binding,Plasma Protein [4],92%
same,Plasma Protein Binding,Plasma Protein [5],91%
same,Plasma Stability T1/2,[6],>48 h
